Experimental data taken from patent US20260001928A1 (CORTERIA PHARMACEUTICALS, priority 2022, published 2026).
*1 amine or outer side, *2 acyl side, *3 side chain or, on linkers, in order; H or OH if unused. Where a SMILES comes first, the peptide text is derived from it. Side-chain parts run from the residue outwards. [ ]: non-standard residue; d: D form. The star is where a group is joined. C18 diacid = O=C(O)CCCCCCCCCCCCCCCCC(=O)*; C16 diacid = O=C(O)CCCCCCCCCCCCCCC(=O)*; γGlu = O=C(O)[C@H](CCC(=O)[*:2])N[*:1]; NMeI = CC[C@H](C)[C@H](NC)C(=O)O; Pentanoyl = CCCCC(=O)*; AEEA = NCCOCCOCC(=O)O; Aib = CC(C)(N)C(=O)O

Key:
human CRF2a receptor = target: T1, human CRF2a receptor (Homo sapiens, UniProt Q13324); assay: Activity at human CRF2a receptor, cAMP functional assay in TeloHEAC cells; assay type: cell-based; details: TeloHEAC cells stably expressing human CRF2a receptor, relative to urocortin 2 (100 nM = 100%)
T1 construct: expressed in transfected cells; host or cells: TeloHEAC cells
T1 sequence (Q13324 1-411): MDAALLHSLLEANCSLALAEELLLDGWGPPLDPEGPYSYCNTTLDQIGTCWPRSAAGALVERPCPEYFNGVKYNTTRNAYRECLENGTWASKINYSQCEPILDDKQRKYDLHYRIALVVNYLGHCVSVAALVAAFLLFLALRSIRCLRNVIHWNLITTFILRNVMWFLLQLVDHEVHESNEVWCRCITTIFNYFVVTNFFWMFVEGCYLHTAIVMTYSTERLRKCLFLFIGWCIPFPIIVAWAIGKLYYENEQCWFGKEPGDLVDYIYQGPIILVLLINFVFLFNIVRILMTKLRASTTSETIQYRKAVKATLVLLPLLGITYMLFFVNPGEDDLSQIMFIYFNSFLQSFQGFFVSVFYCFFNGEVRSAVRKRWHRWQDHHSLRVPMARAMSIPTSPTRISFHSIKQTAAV
Summary of the method: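 cAMP accumulation was measured by HTRF 665/620 nm ratio after 30 min at 37° C compound exposure (16 twofold dilutions) of CRF2a-expressing TeloHEAC cells, 10000/well, in HEPES-buffered HBSS plus IBMX. Activity was normalised to urocortin 2 at 100 nM (100%), and EC50 was the concentration giving half-maximal activation.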

CFR1R receptor = target: T2, CFR1R receptor (Homo sapiens, UniProt P34998); assay: Activity at anti-target CFR1R receptor, cAMP assay in CRF1R-overexpression CHO-K1 cells; assay type: cell-based; details: 100% = Sauvagine at 100 nM; for EC50: cAMP
T2 construct: host or cells: CHO-K1 (clone 2)
T2 sequence (P34998 24-415): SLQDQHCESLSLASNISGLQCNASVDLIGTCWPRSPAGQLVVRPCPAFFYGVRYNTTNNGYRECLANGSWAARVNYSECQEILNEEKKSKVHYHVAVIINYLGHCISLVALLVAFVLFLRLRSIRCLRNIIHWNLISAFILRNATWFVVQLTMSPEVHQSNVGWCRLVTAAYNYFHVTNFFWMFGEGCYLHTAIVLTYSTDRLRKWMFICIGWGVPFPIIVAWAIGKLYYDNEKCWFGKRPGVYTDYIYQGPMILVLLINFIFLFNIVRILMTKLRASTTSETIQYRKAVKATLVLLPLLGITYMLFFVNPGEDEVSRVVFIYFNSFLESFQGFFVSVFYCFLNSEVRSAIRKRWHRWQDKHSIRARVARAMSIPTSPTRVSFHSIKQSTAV
Summary of the method: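 Run as for the TeloHAEC line, except the full-activation control well received Sauvagine (100 nM) and final density was 4000 cells/well. Cells from clone 2 came from frozen aliquots of near-confluent cultures.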

## CC[C@H](C)[C@H](NC(C)=O)C(=O)N[C@H](C(=O)N[C@@H](CC(C)C)C(=O)N[C@@H](CO)C(=O)N[C@@H](CC(C)C)C(=O)N[C@@H](CC(=O)O)C(=O)N[C@@H](C(=O)N1CCC[C@H]1C(=O)N[C@H](C(=O)NCC(=O)N[C@@H](CC(C)C)C(=O)N[C@@H](CCCCNC(=O)CC[C@H](NC(=O)CCCCCCCCCCCCCCCCC(=O)O)C(=O)O)C(=O)N[C@@H](CCCCN)C(=O)N[C@H](C(=O)N[C@@H](CC(C)C)C(=O)N[C@@H](CC(C)C)C(=O)N[C@@H](CCC(=O)O)C(=O)N[C@@H](CCC(N)=O)C(=O)N[C@@H](CCC(=O)O)C(=O)N[C@@H](CCCCN)C(=O)N[C@@H](CCC(N)=O)C(=O)N[C@@H](CCCCN)C(=O)N[C@@H](CCCCN)C(=O)N[C@@H](CCC(N)=O)C(=O)N[C@@H](CCCNC(=N)N)C(=O)N[C@@H](CCC(=O)O)C(=O)N[C@@H](CCC(N)=O)C(=O)N[C@@H](C)C(=O)N[C@@H](CCC(=O)O)C(=O)N[C@H](C(=O)N[C@@H](CC(N)=O)C(=O)NC(C)(C)C(=O)N[C@@H](CCC(N)=O)C(=O)N[C@H](C(=O)N[C@@H](CC(C)C)C(=O)N[C@@H](C)C(=O)N[C@@H](CCC(N)=O)C(=O)N[C@H](C(N)=O)C(C)C)[C@@H](C)CC)[C@@H](C)O)[C@@H](C)CC)[C@@H](C)CC)C(C)C)C(C)C [compound 191] (Ac-IVLSLD[dV]PIGLK([γGlu-C18 diacid])KILLEQEKQKKQREQAETN[Aib]QILAQV-NH2)
Human CRF2a receptor
  EC50: 0.18 nM
CFR1R receptor
  Emax (% I): 54 % I

## CCCCC(=O)N[C@H](C(=O)N[C@@H](CC(C)C)C(=O)N[C@@H](CO)C(=O)N[C@@H](CC(C)C)C(=O)N[C@@H](CC(=O)O)C(=O)N[C@@H](C(=O)N1CCC[C@H]1C(=O)N[C@H](C(=O)N[C@@H](CCCCN)C(=O)N[C@@H](CC(C)C)C(=O)N[C@@H](CCCCNC(=O)CC[C@H](NC(=O)CCCCCCCCCCCCCCC(=O)O)C(=O)O)C(=O)N[C@@H](CCC(N)=O)C(=O)NC(C)(C)C(=O)N[C@@H](CC(C)C)C(=O)N[C@@H](CC(C)C)C(=O)N[C@@H](CCCCN)C(=O)N[C@@H](CCC(N)=O)C(=O)N[C@@H](CCC(=O)O)C(=O)N[C@@H](CCCNC(=N)N)C(=O)N[C@@H](CCC(N)=O)C(=O)N[C@@H](CCCCN)C(=O)N[C@@H](CCCCN)C(=O)N[C@@H](CCC(N)=O)C(=O)N[C@@H](CCCNC(=N)N)C(=O)N[C@@H](CCC(=O)O)C(=O)N[C@@H](CCC(N)=O)C(=O)N[C@@H](C)C(=O)N[C@@H](CCC(=O)O)C(=O)N[C@@H](CCCCN)C(=O)N[C@@H](CC(N)=O)C(=O)N[C@H](C(=O)N[C@@H](CCC(N)=O)C(=O)N[C@H](C(=O)N[C@@H](CC(C)C)C(=O)N[C@@H](CCC(=O)O)C(=O)N[C@@H](CCC(N)=O)C(=O)N[C@H](C(N)=O)C(C)C)[C@@H](C)CC)C(C)C)[C@@H](C)CC)C(C)C)C(C)C [compound 22] (Pentanoyl-VLSLD[dV]PIKLK([γGlu-C16 diacid])Q[Aib]LLKQERQKKQREQAEKNVQILEQV-NH2)
Human CRF2a receptor
  EC50: 4.44 nM
CFR1R receptor
  Emax (% I): 3 % I
  EC50: > 250 nM

## CC[C@H](C)[C@H](NC(C)=O)C(=O)N[C@H](C(=O)N[C@@H](CC(C)C)C(=O)N[C@@H](CO)C(=O)N[C@@H](CC(C)C)C(=O)N[C@@H](CC(=O)O)C(=O)N[C@@H](C(=O)N1CCC[C@H]1C(=O)N[C@H](C(=O)N[C@@H](CCCCN)C(=O)N[C@@H](CC(C)C)C(=O)N[C@@H](CCCCNC(=O)CC[C@H](NC(=O)CCCCCCCCCCCCCCCCC(=O)O)C(=O)O)C(=O)N[C@@H](CCCCN)C(=O)N[C@H](C(=O)N[C@@H](CC(C)C)C(=O)N[C@@H](CC(C)C)C(=O)N[C@@H](CCC(=O)O)C(=O)N[C@@H](CCC(N)=O)C(=O)N[C@@H](CCC(=O)O)C(=O)N[C@@H](CCCCN)C(=O)N[C@@H](CCC(N)=O)C(=O)N[C@@H](CCCCN)C(=O)N[C@@H](CCCCN)C(=O)N[C@@H](CCC(N)=O)C(=O)N[C@@H](CCCNC(=N)N)C(=O)N[C@@H](CCC(=O)O)C(=O)N[C@@H](CCC(N)=O)C(=O)N[C@@H](C)C(=O)N[C@@H](CCC(=O)O)C(=O)N[C@H](C(=O)N[C@@H](CC(N)=O)C(=O)N[C@@H](CCC(=O)O)C(=O)N[C@@H](CCC(N)=O)C(=O)N[C@H](C(=O)N[C@@H](CC(C)C)C(=O)N[C@@H](C)C(=O)N[C@@H](CCC(N)=O)C(=O)N[C@H](C(N)=O)C(C)C)[C@@H](C)CC)[C@@H](C)O)[C@@H](C)CC)[C@@H](C)CC)C(C)C)C(C)C [compound 130] (Ac-IVLSLD[dV]PIKLK([γGlu-C18 diacid])KILLEQEKQKKQREQAETNEQILAQV-NH2)
Human CRF2a receptor
  EC50: 0.08 nM
CFR1R receptor
  Emax (% I): 4 % I
  EC50: > 250 nM

## CC[C@H](C)[C@H](NC)C(=O)N[C@H](C(=O)N[C@@H](CC(C)C)C(=O)N[C@@H](CO)C(=O)N[C@@H](CC(C)C)C(=O)N[C@@H](CC(=O)O)C(=O)N[C@@H](C(=O)N1CCC[C@H]1C(=O)N[C@H](C(=O)NCC(=O)N[C@@H](CC(C)C)C(=O)N[C@@H](CCCCNC(=O)CC[C@H](NC(=O)CCCCCCCCCCCCCCCCC(=O)O)C(=O)O)C(=O)N[C@@H](CCCCN)C(=O)N[C@H](C(=O)N[C@@H](CC(C)C)C(=O)N[C@@H](CC(C)C)C(=O)N[C@@H](CCC(=O)O)C(=O)N[C@@H](CCC(N)=O)C(=O)N[C@@H](CCC(=O)O)C(=O)N[C@@H](CCCCN)C(=O)N[C@@H](CCC(N)=O)C(=O)N[C@@H](CCCCN)C(=O)N[C@@H](CCCCN)C(=O)N[C@@H](CCC(N)=O)C(=O)N[C@@H](CCCNC(=N)N)C(=O)N[C@@H](CCC(=O)O)C(=O)N[C@@H](CCC(N)=O)C(=O)N[C@@H](C)C(=O)N[C@@H](CCC(=O)O)C(=O)N[C@H](C(=O)N[C@@H](CC(N)=O)C(=O)NC(C)(C)C(=O)N[C@@H](CCC(N)=O)C(=O)N[C@H](C(=O)N[C@@H](CC(C)C)C(=O)N[C@@H](C)C(=O)N[C@@H](CCC(N)=O)C(=O)N[C@H](C(N)=O)C(C)C)[C@@H](C)CC)[C@@H](C)O)[C@@H](C)CC)[C@@H](C)CC)C(C)C)C(C)C [compound 192] (H-[NMeI]VLSLD[dV]PIGLK([γGlu-C18 diacid])KILLEQEKQKKQREQAETN[Aib]QILAQV-NH2)
Human CRF2a receptor
  EC50: 0.11 nM
CFR1R receptor
  Emax (% I): 19 % I
  EC50: > 250 nM

## CCCCC(=O)N[C@H](C(=O)N[C@@H](CC(C)C)C(=O)N[C@@H](CO)C(=O)N[C@@H](CC(C)C)C(=O)N[C@@H](CC(=O)O)C(=O)N[C@@H](C(=O)N1CCC[C@H]1C(=O)N[C@H](C(=O)N[C@@H](CCCCN)C(=O)N[C@@H](CC(C)C)C(=O)N[C@@H](CCCCNC(=O)COCCOCCNC(=O)COCCOCCNC(=O)CC[C@H](NC(=O)CCCCCCCCCCCCCCCCC(=O)O)C(=O)O)C(=O)N[C@@H](CCCCN)C(=O)N[C@H](C(=O)N[C@@H](CC(C)C)C(=O)N[C@@H](CC(C)C)C(=O)N[C@@H](CCC(=O)O)C(=O)N[C@@H](CCC(N)=O)C(=O)N[C@@H](CCC(=O)O)C(=O)N[C@@H](CCCCN)C(=O)N[C@@H](CCC(N)=O)C(=O)N[C@@H](CCCCN)C(=O)NC(C)(C)C(=O)N[C@@H](CCC(N)=O)C(=O)N[C@@H](CCCNC(=N)N)C(=O)N[C@@H](CCC(=O)O)C(=O)N[C@@H](CCC(N)=O)C(=O)N[C@@H](C)C(=O)N[C@@H](CCC(=O)O)C(=O)N[C@H](C(=O)N[C@@H](CC(N)=O)C(=O)NC(C)(C)C(=O)N[C@@H](CCC(N)=O)C(=O)N[C@H](C(=O)N[C@@H](CC(C)C)C(=O)N[C@@H](C)C(=O)N[C@@H](CCC(N)=O)C(=O)N[C@H](C(N)=O)C(C)C)[C@@H](C)CC)[C@@H](C)O)[C@@H](C)CC)[C@@H](C)CC)C(C)C)C(C)C [compound 202] (Pentanoyl-VLSLD[dV]PIKLK([AEEA-AEEA-γGlu-C18 diacid])KILLEQEKQK[Aib]QREQAETN[Aib]QILAQV-NH2)
Human CRF2a receptor
  EC50: 1.73 nM
CFR1R receptor
  Emax (% I): 8 % I
  EC50: > 250 nM
